Calls of active or inactive are those of the source.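 Rule for the calls: active = inhibition of 30% or more at 50 µM; inactive = inhibition under 30% at 50 µM.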
Target: Serine/threonine-protein phosphatase 5 (Homo sapiens) (UniProt P53041)
Assay: PP5 phosphatase inhibitors, OMFP cleavage, confirmation, biochemical, fluorescence, round 5, powder samples (AID 624434)
Settings: purified PP5c, OMFP dephosphorylation, at 50 µM, hits give high values

Serine/threonine-protein phosphatase 5 (Homo sapiens), sequence (P53041 whole entry, looked up): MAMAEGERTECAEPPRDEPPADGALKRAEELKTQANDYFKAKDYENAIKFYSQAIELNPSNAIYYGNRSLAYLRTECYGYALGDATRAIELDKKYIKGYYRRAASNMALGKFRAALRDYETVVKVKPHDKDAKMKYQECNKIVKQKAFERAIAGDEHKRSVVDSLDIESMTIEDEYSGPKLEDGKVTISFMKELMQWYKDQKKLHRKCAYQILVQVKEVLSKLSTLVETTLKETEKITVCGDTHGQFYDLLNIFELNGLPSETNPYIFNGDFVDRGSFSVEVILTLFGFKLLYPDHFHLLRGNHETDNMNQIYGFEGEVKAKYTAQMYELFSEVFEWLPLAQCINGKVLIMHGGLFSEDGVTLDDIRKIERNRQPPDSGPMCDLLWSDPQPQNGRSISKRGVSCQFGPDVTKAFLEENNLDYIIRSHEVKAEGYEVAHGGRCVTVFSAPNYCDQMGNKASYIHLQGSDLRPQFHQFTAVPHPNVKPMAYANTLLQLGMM

inhibition	SMILES
0.413% (inactive)	CN(C)C(=O)c1n[nH]nc1-c1ccccc1
69.3%	Cc1ccccc1-c1n[nH]nc1C(=O)O
70.5%	O=C(O)c1n[nH]nc1-c1cccc(F)c1
13.8% (inactive)	O=C(O)c1[nH]ccc1-c1ccccc1
12.4% (inactive)	O=C(O)c1n[nH]nc1C(=O)O
46.8%	O=C(O)c1n[nH]nc1-c1ccccn1
77.6%	COc1cccc(-c2n[nH]nc2C(=O)O)c1
4.32% (inactive)	O=C(O)c1n[nH]nc1-c1cccnc1
70%	COc1ccc(-c2n[nH]nc2C(=O)O)cc1
1.47% (inactive)	O=Cc1n[nH]nc1-c1ccccc1
1.15% (inactive)	c1ccc(-c2n[nH]nc2-c2nn[nH]n2)cc1
81.1%	O=C(O)c1n[nH]nc1-c1ccccc1F
66.5%	O=C(O)c1n[nH]nc1-c1ccc(F)cc1
52.6%	O=C(O)c1n[nH]nc1-c1ccccc1-c1ccccc1
81.9%	O=C(O)c1n[nH]nc1-c1ccccc1O
2.79% (inactive)	N#Cc1n[nH]nc1-c1ccccc1
47.4%	CC(C)c1ccccc1-c1n[nH]nc1C(=O)O
83.4%	COc1ccccc1-c1n[nH]nc1C(=O)O
85.6%	CCOc1ccccc1-c1n[nH]nc1C(=O)O
10.6% (inactive)	O=C(O)c1n[nH]nc1Br
3.79% (inactive)	O=C(O)c1cnn(-c2ccccc2)n1
5.21% (inactive)	NC(=O)c1n[nH]nc1-c1ccccc1
84.9%	CC(C)Oc1ccccc1-c1n[nH]nc1C(=O)O
-1.73% (inactive)	CNC(=O)c1n[nH]nc1-c1ccccc1
62.5%	CCc1ccccc1-c1n[nH]nc1C(=O)O

From PubChem BioAssay AID624434 (The Scripps Research Institute Molecular Screening Center, 2012)
